Measured values published in patent US9494867B2, “Rinsing liquid for lithography and pattern forming method using same” (AZ ELECTRONIC MATERIALS (LUXEMBOURG) S.A.R.L., priority 2013, dated 2016).

experiment: Measurement of surface tension of rinse solution; format: physicochemical; conditions: rinse solution containing 1,000 ppm of the additive
Method: A surface tension measurement of a prepared rinse solution was conducted using the surface tensiometer CBVP-Z manufactured by Kyowa interface science Co., LTD.

Structure (SMILES)	Surface tension of the rinse solution
CC(O)C=CC(C)O (stereo not shown) [HXED, 3-hexene-2,5-diol]	66.5 mN/m

experiment: Storage stability test of rinse solution; format: physicochemical; parameters: key: when the defect number of the test rinse solution is equal to or less than that of the rinse solution of the deionized water, it is evaluated as ‘O’; when the number is more than that of the deionized water, it is evaluated as ‘X’; conditions: additive concentrations more than 3,000 ppm
Method: A rinse solution prepared in a predetermined concentration is filtered through a filter and left at rest at 25° C. for one month. A chemically amplified KrF resist composition AZ DX6270P manufactured by AZ Electronic Materials Manufacturing (Japan) K. K. is spin-coated on a silicon wafer and soft-baked at 120° C. for 90 seconds to form a resist film of 620 nm in thickness. The rinse solution after preservation is applied on the resist film and the wafer is rotated at a very high speed to dry it. The total defect numbers of all defects including gel defects and particle defects on this film are measured using a defect inspection apparatus KLA2360 manufactured by KLA Tencor corporation. The number of defects when the preserved test rinse solution is used as a rinse solution is compared with that when the preserved rinse solution consisting of only a deionized water is used (see Comparative example 1) and when the defect number of the test rinse solution is equal to or less than that of the rinse solution of the deionized water, it is evaluated as ‘O’ and when the number is more than that of the deionized water, it is evaluated as ‘X’.

Structure (SMILES)	Storage stabilities
CCOC(O)C#CC(O)OCC (stereo not shown) [DODD, 3,8-dioxa-5-decyne-4,7-diol, reference compound]	X

experiment: Measurement of maximum dissolution quantity in water; format: physicochemical; conditions: water of 25° C.
Method: Different amounts of an additive agent for a rinse solution are added between transparent screws and in each cases water is further added as the total amount of the additive agent and water is made 100 g. These are mixed at 25° C. for 10 hours or more by using a stealer and left at rest for some time at this temperature. The state of dissolution thereof is observed by eyes and the maximum amount of the additive agent wherein insoluble matter is not observed in the solution is defined as a maximum dissolution quantity (ppm).

Structure (SMILES)	Maximum dissolution quantity of additives in water
OCCCCO [1,4-butanediol, reference compound]	>10,000 ppm
OCc1ccccc1CO [OXG, 1,2-benzendimethanol]	>10,000 ppm
OCC#CC#CCO [HXDD, 2,4-hexadiyn-1,6-diol]	>10,000 ppm
CCOC(O)C#CC(O)OCC (stereo not shown) [DODD, 3,8-dioxa-5-decyne-4,7-diol, reference compound]	>10,000 ppm
CC(O)C#CC(C)O (stereo not shown) [HXYD, 3-hexyne-2,5-diol]	>10,000 ppm
OCC1CCC(CO)CC1 (stereo not shown) [CHDM, 1,4-cyclohexanedimethanol, reference compound]	>10,000 ppm
OCc1cccc(CO)c1 [MXG, 1,3-benzendimethanol]	>10,000 ppm
OCC#CCO [BTD, 1,4-butynediol]	>10,000 ppm
CCC(C)(O)C#CC(C)(O)CC (stereo not shown) [DMOD, 3,6-dimethyl-4-octyn-3,6-diol]	>10,000 ppm
CC(C)(O)C#CC(C)(C)O [DMHD, 2,5-dimethyl-3-hexyne-2,5-diol]	>10,000 ppm
OCc1ccc(CO)cc1 [PXG, p-xylylene glycol]	>10,000 ppm
